Results from patent publication US11366103B2, “Multi-well micropatterning by ablation” (Massachusetts Institute of Technology, priority 2006, dated 2022).
Where two headings read alike, the source gives them in different places.

Key:
[1] = test system: micropatterned co-cultures of primary human hepatocytes and 3T3-J2 fibroblasts
Description: Mitochondrial toxicity was evaluated using the MTT assay. […] All data were normalized to a vehicle-only control. […] Tissues were dosed repeatedly every 48 hours. All data was normalized to mitochondrial activity in untreated cultures (100% activity).
In order to assess the utility of micropatterned co-cultures for toxicity screening, the acute and chronic toxicity of model hepatotoxins was quantified. […] Establishment of liver tissue that is stable over several weeks is crucial for evaluating chronic toxicity due to repeated exposures.
Cultures were incubated with various concentrations of compounds dissolved in culture medium for 24 hours (acute toxicity) or extended time periods (chronic toxicity, 1-9 days). Cell viability was subsequently measured via the MTT (3-(4,5-dimethylthiazol-2-yl)-2,5-diphenyl tetrazolium bromide; Sigma) assay, which involves cleavage of the tetrazolium ring by mitochondrial dehydrogenase enzymes to form a purple precipitate. MTT was added to cells in DMEM without phenol red at a concentration of 0.5 mg/mL. After an incubation time of 1 hour, the purple precipitate was dissolved in a 1:1 solution of DMSO and Isopropanol. The absorbance of the solution was measured at 570 nm (SpectraMax spectrophotometer, Molecular Devices, Sunnyvale, Calif.).

[2] = test system: pure hepatocyte monolayers; settings: rat, 24 h; for viability relative to untreated controls: 1 mM
[3] = test system: co-cultures of primary rat hepatocytes and 3T3-J2 fibroblasts; settings: for viability relative to untreated controls: 1 mM
Description: Toxicity of pharmaceuticals due to chronic exposure is clinically relevant. Since hepatocyte culture models utilized in the pharmaceutical industry lose viability and phenotypic functions within a few days, toxicity due to repeated drug exposures over days or weeks cannot be evaluated. […] Co-cultures were incubated with varying doses of toxins dissolved in culture medium over several days. Mitochondrial activity (MTT assay, see methods) was evaluated at different time points to assess viability in co-cultures.
Pure hepatocyte monolayers rapidly lose phenotypic functions and thus represent an ‘unstable’ model of the liver. […] The objective here was to compare toxicity of model Hepatotoxins in pure hepatocyte monolayers and co-cultures. Pure hepatocyte monolayers (Day 2 of culture) or hepatocyte-fibroblast co-cultures (Day 13) prepared from the same rat liver were treated with Hepatotoxins for 24 hours, after which viability was assessed via the MTT assay.
All chemicals were purchased from Sigma. In order to evaluate the acute toxicity of compounds, cultures were incubated with various concentrations of compounds dissolved in culture medium for 24 hours. For chronic studies, culture media with fresh Hepatotoxins was added every 2 days. Cell viability at different time points was subsequently measured via the MTT assay.

[4] = molecular target: T1, CYP2A6 (Homo sapiens, UniProt P11509)
T1 sequence (P11509 1-494): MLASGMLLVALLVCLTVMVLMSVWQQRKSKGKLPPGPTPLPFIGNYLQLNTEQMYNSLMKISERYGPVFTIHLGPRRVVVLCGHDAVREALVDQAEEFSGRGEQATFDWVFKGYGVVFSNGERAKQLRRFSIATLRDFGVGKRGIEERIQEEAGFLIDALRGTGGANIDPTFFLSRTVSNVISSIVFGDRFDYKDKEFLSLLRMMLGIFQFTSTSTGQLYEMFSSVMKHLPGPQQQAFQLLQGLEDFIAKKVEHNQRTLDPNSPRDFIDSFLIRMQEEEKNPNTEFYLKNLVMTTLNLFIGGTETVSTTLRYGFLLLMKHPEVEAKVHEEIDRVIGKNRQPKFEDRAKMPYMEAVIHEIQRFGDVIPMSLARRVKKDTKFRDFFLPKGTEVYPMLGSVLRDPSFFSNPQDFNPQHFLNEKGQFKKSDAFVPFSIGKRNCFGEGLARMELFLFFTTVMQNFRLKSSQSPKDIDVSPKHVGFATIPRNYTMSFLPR

[5] = test system: CYP1A2; experiment: Dose and time-dependent CYP1A2 induction in micropatterned co-cultures; settings: incubation for 1 or 3 days
[6] = test system: CYP3A; experiment: Inhibition of BFC dealkylation in rat co-cultures; settings: BFC in the presence of ketoconazole
[7] = test system: CYP450 enzymes; experiment: CYP450-mediated dealkylation of BFC and MFC in micropatterned rat co-cultures; format: in vitro ADME
Description: Therefore, in order to improve the signal-to-noise ratio, levels of CYP1A was ‘induced’ by pre-incubating co-cultures with 3 μM 3-Methylcholanthrene (3-MC) for 3 days prior to assessment of substrate metabolism. […] ER and MR are fluorimetric substrates specific for CYP1A enzymes. […] Use of non-specific substrates provides for an ‘average’ value of CYP450 activity, and is useful to determine whether CYP450 enzymes are functional in a particular system. In FIG. 22A, co-cultures were able to successfully dealkylate BFC and MFC into 7-HFC. […] CYP450 enzymes are oxido-reductases that are part of the Phase I metabolic pathway in hepatocytes. The phase II family of enzymes, on the other hand, is typically involved in the conjugation of highly polar moieties (i.e. sulfate group, glucuronic acid) to xenobiotics to make them water-soluble for excretion out of the body via bile or through the kidneys. A useful substrate for evaluating conjugation reactions is the fluorescent substrate, 7-Hydroxycoumarin (7-HC), which gets modified to non-fluorescent compounds, 7-HC-Glucuronide and 7-HC-Sulfate. The level of conjugation can then be quantified by using bacterial-derived β-glucuronidase and aryl-sulfatase enzymes to ‘deconjugate’ the Phase II products and recover 7-HC fluorescence. In our micropatterned rat co-cultures, we observed time-dependent conjugation of 7-HC by Phase-II enzymes (FIG. 22B). […]

[8] = test system: CYP2A; experiment: Coumarin 7-hydroxylation in micropatterned rat co-cultures; format: in vitro ADME
Excerpt: (§1) FIGS. 33A-33C depict a comparison of Phase I- and Phase II-mediated substrate metabolism in human and rat co-cultures. Micropatterned cultures with either primary human or primary rat hepatocytes were created using the stencil-based process. Subsequent addition of 3T3-J2 fibroblasts created co-cultures. […] Data from a single representative day is shown.
(§2) Significant variations in hepatocellular functions (i.e. CYP450 enzymes) across different species have been implicated in the inability of animal models to adequately predict adverse outcomes in clinical trials involving humans. Nonetheless, studies in live animals are required by the FDA since they provide valuable in vivo data in a preclinical setting. Therefore, the selection of an animal species (i.e. rat, mouse, monkey, guinea pig) in which the liver-specific metabolism and toxicity of a particular candidate drug are similar to that seen in humans is crucial for clinical success. In vitro human and animal models that closely resemble in-vivo functionality may find use in such a selection process. […] For instance, BFC was dealkylated in rat co-cultures at a rate (pmoles/min/10^6 cells) that was ˜18 fold greater than the rate seen in human co-cultures.
Spent media was stored at −20° C.

[9] = molecular target: T2, CYP2A (Homo sapiens, UniProt P11509); experiment: Coumarin 7-hydroxylation in micropatterned human co-cultures; format: in vitro ADME
T2 construct: endogenous in cells; host or cells: primary human hepatocytes co-cultured with murine 3T3-J2 fibroblasts
T2 sequence (P11509 1-494): T1 sequence (P11509 1-494)
Excerpt: as §1, §2

[10] = test system: CYP1A
Description: Cultures were treated for 3-4 days before incubation with fluorometric or conventional CYP450 substrates. All data was normalized to vehicle-only controls (fold change of 1). […] Substrate/inhibitor combinations: BFC/ketoconazole (CYP3A4), MFC/sulfaphenazole (CYP2C9), Coumarin/methoxsalen (CYP2A6), and 7-Hydroxycoumarin/Salicylamide (Glucuronidation). […] Data were normalized to vehicle-only controls.
Stock solutions of prototypic CYP450 inducers (Sigma) were made in Dimethylsulfoxide (DMSO), except for Phenobarbital, which was dissolved in water. […] Control cultures were treated with vehicle (DMSO) alone for calculations of fold induction. To enable comparisons across inducers, DMSO levels were kept constant at 0.1% (v/v) for all conditions.

Cc1c(C)c2c(c(C)c1O)CCC(C)(COc1ccc(CC3SC(=O)NC3=O)cc1)O2 (centres unmarked) [troglitazone]
chronic toxicity [1]: dose and time-dependent toxicity | concentration giving ~44% reduction of viability [2]: 227 µM | relative toxicity in pure monolayers versus co-cultures [3]: more toxic to co-cultures as compared to pure monolayers | reduction of viability ([3]; rat, 24 h, 170 μM): ~44%

COc1c2occc2cc2ccc(=O)oc12 [Methoxsalen]
inhibition of CYP2A6 activity [4]: dose-dependent inhibition

O=c1cc(-c2ccccc2)oc2ccc3ccccc3c12 [β-Naphthoflavone]
induction of CYP1A2 activity [5]: induced CYP1A2 activity in a dose and time-dependent manner

COc1ccc(CN(CCN(C)C)c2ccccn2)cc1 [pyrilamine]
viability relative to untreated controls [2]: less than 6% | relative toxicity in pure monolayers versus co-cultures [3]: more toxic to pure monolayers as compared to co-cultures | TC50 ([3]; rat, 24 h): 1 to 1.2 mM | viability relative to untreated controls ([3]; rat, 24 h): greater than 80% | TC50 ([3]; rat, 7 days): ~0.2 mM

[Cd] [cadmium]
shape of dose-dependent acute toxicity profile ([1]; 24 hrs exposure, MTT): relatively linear toxic profile | TC50 relative to other compounds ([1]; concentration producing 50% reduction in mitochondrial activity (MTT) after 24 hours exposure): three orders-of-magnitude lower than the TC50 values for aspirin and caffeine

CC(=O)N1CCN(c2ccc(OCC3COC(Cn4ccnc4)(c4ccc(Cl)cc4Cl)O3)cc2)CC1 (centres unmarked) [ketoconazole]
inhibition of BFC dealkylation [6]: ~33%

O=c1cc(C(F)(F)F)c2ccc(OCc3ccccc3)cc2o1 [BFC]
rate of BFC metabolism relative to rate of MFC metabolism ([7]; rat co-cultures, day 14): ~12 fold | rate of BFC dealkylation in rat relative to human co-cultures ([7]; rat, human): ~18 fold

O=c1ccc2ccccc2o1 [coumarin]
coumarin hydroxylation [8]: unable to hydroxylate coumarin | rate of coumarin hydroxylation [9]: greater than 6 pmol/min/10^6 cells

CN(C)CCN(Cc1cccs1)c1ccccn1 [methapyrilene]
viability relative to untreated controls [2]: less than 6% | relative toxicity in pure monolayers versus co-cultures [3]: more toxic to pure monolayers as compared to co-cultures | TC50 ([3]; rat, 24 h): 1.4 to 1.6 mM | viability relative to untreated controls ([3]; rat, 24 h): greater than 80%

COc1ccc2[nH]c([S+]([O-])Cc3ncc(C)c(OC)c3C)nc2c1 (centres unmarked) [Omeprazole]
CYP1A induction, effectiveness in human over rat models [10]: 8 fold
